Measured values from patent US4985547A, “External skin care preparation” (Kao Corporation, priority 1987, dated 1991).

Tests used:
horny layer = test: Skin conductance (water content of horny layer) after two-week coating on cheeks; assay type: in vivo, women; design: key: conductance meter reading; ≤5 = severe roughness, ≥20 = no roughness; conditions: Invention Product 1: vaseline and compound 3:1 by weight; two weeks; 20° C., 40% humidity; 5 and smaller = severe roughness, 20 or greater = no substantial roughness
Source text: (§1) Compounds Ia1 -Ia18 prepared respectively in Referential Examples 1, 2 and 3 and following the procedures of these referential examples, compounds Ib1 -Ib5 prepared respectively in Referential Example 4 and following the procedure of the referential example, compounds Id1 -Id5 prepared respectively in Referential Example 5 and following the procedure of the referential example, compounds Ie1 -Ie4 prepared respectively in Referential Examples 6-9, and conventional compounds Ic1 -Ic13, Ie5 -Ie14 and II1 -II12 were used separately. Mixtures (Invention Products 1), each of which had been formulated by mixing vaseline and the compound (I or II) at a weight ratio of 3:1, and vaseline (Comparative Product 1) were evaluated in skin conductance and skin roughness by the following methods.
(§2) Chosen as volunteers in winter were 10 women of 20-50 years of old who had skin roughness on their both cheeks. Different external skin care preparations were coated separately on the left and right cheeks of each volunteer for two weeks. On the following day of the completion of the two-week coating test, tests were conducted with respect to the following properties.
After washing the face with warm water of 37° C., each volunteer was allowed to rest for 20 minutes in a room which was air-conditioned at 20° C. and 40% humidity. The water content of their horny layer was measured by a skin conductance meter (manufactured by IBS Company). A smaller conductance value indicates greater skin roughness. Conductance values of 5 and smaller indicate severe skin roughness. On the contrary, no substantial skin roughness is observed where this value is 20 or greater.

skin roughness = test: Score of skin roughness, visual ranking after two-week coating on cheeks; assay type: in vivo, women; conditions: average, 4 = severe
Source text: as §1, §2
Skin roughness was observed visually and ranked in accordance with the following standard. Each score was indicated by an average value.
Score Ranking of skin roughness
0 No skin roughness was observed.
1 Slight skin roughness was observed.
2 Skin roughness was observed.
3 Rather severe skin roughness was observed.
4 Severe skin roughness was observed.
Using separately the compounds used in Example 1, external skin care preparations (emulsified cosmetic preparations) of their corresponding compositions shown below in Table 2 were formulated. Their effects for the improvement of skin roughness were evaluated in the same manner as in Example 1.

[1] = Invention product 2: emulsified cosmetic, compound 1.0 wt. %, glyceryl ether 2.0 wt. %, 0 = none
[2] = Invention product 3: emulsified cosmetic, compound 1.0 wt. %, arginine monocetylphosphate 2.0 wt. %, 0 = none
[3] = Invention product 4: emulsified cosmetic, compound 1.0 wt. %, polyoxyethylene (20) sorbitan stearate 1.0 and sorbitan monostearate 1.0 wt. %, 0 = none
[4] = Invention Product 1: vaseline and compound 3:1 by weight, two weeks, 0 = no roughness

Row | SMILES | Skin conductance (horny layer) | Score of skin roughness (skin roughness; [1]) | Score of skin roughness (skin roughness; [2]) | Score of skin roughness (skin roughness; [3]) | Score of skin roughness (skin roughness; [4])
1 | CCCCCCCCCCCCCCCCC(O)CN(CCO)C(=O)CCCCCCCCC (stereo not drawn) [Compound Id2] | 18 | 0.3 | 0.5 | 0.8 | 
2 | CCCCCCCCCCCCCCCCCCOCC(O)CN(C(=O)CCCCCCCCCCCCCCCCC)C(C)(C)CO (stereo not drawn) [Compound Ia15] | 13 | 0.5 | 0.7 | 1.0 | 
3 | CCCCCCCCCCCCCCCCCC(=O)N(CC(=O)O)CC(O)CCCCCCCCCCCCCCCC (stereo not drawn) [Compound Ic3] | 11 | 1.0 | 1.3 | 1.6 | 
4 | CCCCCCCCCCCCCCCCCCOCC(O)CN(CCCCCCO)C(=O)CCCCCCCCCC (stereo not drawn) [Compound Ia8] | 13 | 0.5 | 0.7 | 1.1 | 
5 | CCCCCCCCCCCCCCCCOCC(CN(CCOP(=O)([O-])OCC[N+](C)(C)C)C(=O)CCCCCCCCCCCCCCC)OP(=O)([O-])OCC[N+](C)(C)C (stereo not drawn) [Compound Ie14] | 10 | 1.2 | 1.4 | 1.9 | 
6 | CCCCCCCCCCOCC(O)CN(CCO)CC(O)COCCCCCCCCCC (stereo not drawn) [Compound II2] | 8 | 0.8 | 1.0 | 1.2 | 
7 | CCCCCCCCCCCCCCCCCCOCC(O)CN(CC(C)O)C(=O)CCCCCCCCCCCCCCCCC (stereo not drawn) [Compound Ia13] | 13 | 0.5 | 0.7 | 1.1 | 
8 | CCCCCCCCCCCCCCCCOCC(O)CN(C(=O)CCCCCCCCCCCCCCC)C(CCSC)C(=O)O (stereo not drawn) [Compound Ic9] | 16 | 0.5 | 0.7 | 1.0 | 
9 | CCCCCCCCCCCCCCCCOCC(O)CN(C(=O)CCCCCCCCCCCCCCC)C(Cc1c[nH]cn1)C(=O)O (stereo not drawn) [Compound Ic12] | 11 | 1.0 | 1.3 | 1.6 | 
10 | CCCCCCCCCCCCCCOCC(O)CN(C(=O)CCCCCCCCC)C(CO)(CO)CO (stereo not drawn) [Compound Ia17] | 20 | 0.2 | 0.4 | 0.7 | 
11 | CCCCCCCCCCCCCCCCOCC(O)CN(C(=O)CCCCCCCCCCCCCCC)C(C)C(=O)O (stereo not drawn) [Compound Ic5] | 13 | 0.8 | 1.0 | 1.3 | 
12 | CCCCCCCCCCCCCCCCCC(=O)N(CCOP(=O)([O-])OCC[N+](CC)(CC)CC)CC(O)COCCCCCCCCCCCCCC (stereo not drawn) [Compound Ie9] | 18 | 0.6 | 0.6 | 1.0 | 
13 | CCCCCCCC/C=C\CCCCCCCCOCC(O)CN(CCOP(=O)([O-])OCC[N+](C)(C)C)C(=O)CCCCCCCCCCCCCCCCC (stereo not drawn) [Compound Ie12] | 13 | 0.9 | 0.9 | 1.5 | 
14 | CCCCCCCCCCOCC(O)CN(CCOCCO)C(=O)CCCCCCCCC (stereo not drawn) [Compound Ib2] | 10 | 0.8 | 1.0 | 1.2 | 
15 | CCCCCCCCCCCCCCCCCC(=O)N(CCO)CC(O)CCCCCCCCCCCCCC (stereo not drawn) [Compound Id1, N-(2-hydroxyethyl)-N-2-hydroxyhexa-decyloctadecanamide] | 21 | 0.2 | 0.4 | 0.7 | 1.0
16 | CCCCCCCCCCCCCCCCCCOCC(O)CN(CC(=O)O)CC(O)COCCCCCCCCCC (stereo not drawn) [Compound II7] | 10 | 0.5 | 0.8 | 1.1 | 

Row | SMILES | Skin conductance (horny layer) | Score of skin roughness (skin roughness; [1]) | Score of skin roughness (skin roughness; [2]) | Score of skin roughness (skin roughness; [3]) | Score of skin roughness (skin roughness; [4])
17 | CCCCCCCCCCOCC(O)CN(CCCO)C(=O)CCCCCCCCC (stereo not drawn) [Compound Ia3] | 10 | 0.7 | 1.0 | 1.3 | 
18 | CCCCCCCCCCOCC(O)CN(CC(O)COCCCCCCCCCC)C(C)=O (stereo not drawn) [Compound II10] | 9 | 0.8 | 1.1 | 1.2 | 
19 | CCCCCCCCCCC(O)CN(CCO)C(=O)CCCCCCCCC (stereo not drawn) [Compound Id3] | 13 | 0.5 | 0.8 | 1.1 | 
20 | CCCCCCCCCCCCCCCCCCOCC(O)CN(CCOCCO)C(=O)CCCCCCCCC (stereo not drawn) [Compound Ib3] | 14 | 0.6 | 0.9 | 1.1 | 
21 | CCCCCCCCCCCCCCCCCCOCC(O)CN(CC(O)COCCCCCCCCCC)C(C)=O (stereo not drawn) [Compound II11] | 12 | 0.4 | 0.8 | 1.2 | 
22 | CCCCCCCCCCCCCCCCOCC(O)CN(CCCCCCO)C(=O)CCCCCCCCCCCCCCC (stereo not drawn) [Compound Ia2, N-(3-hexadecylocy-2-hydroxypropyl)-N-6-hydroxyhexylhexadecanamide] | 18 | 0.3 | 0.5 | 1.0 | 
23 | CCCCCCCCCCCCCCCCCC(=O)N(CC(O)CO)CC(O)COCCCCCCCCCC (stereo not drawn) [Compound Ia11] | 19 | 0.3 | 0.5 | 0.8 | 
24 | CCCCCCCCCCCCCCCCOCC(O)CN(CCO[C@]1(C(=O)O)C[C@H](O)[C@@H](NC(C)=O)[C@H]([C@H](O)[C@H](O)CO)O1)C(=O)CCCCCCCCCCCCCCC (stereo partly drawn) [Compound Ie4, N-(3-hexadecyloxy-2-hydroxypropyl)-N-[2-O-(5-acetamido-3,5-dideoxy-α-D-glycero-β-D-galacto-2-nonuropyranosyl)ethyl]hexadecanamide] | 33 | 0.2 | 0.2 | 0.4 | 0.5
25 | CCCCCCCCCCCCCCCCCC(=O)N(CCO)CC(O)CCCCCCCCCC (stereo not drawn) [Compound Id4] | 17 | 0.3 | 0.5 | 0.8 | 
26 | CCCCCCCCCCCCCCCCCCOCC(O)CN(C(=O)CCCCCCCCCCCCCCCCC)C(C)(CO)CO (stereo not drawn) [Compound Ia14] | 23 | 0.1 | 0.3 | 0.6 | 
27 | CCCCCCCCCCCCCCCCCCOCC(O)CN(CCCCCCO)C(=O)CCCCCCCCCCCCCCCCC (stereo not drawn) [Compound Ia9] | 20 | 0.2 | 0.4 | 0.9 | 
28 | CCCCCCCCCCCCCCCCCCOCC(O)CN(CC(O)CO)C(=O)CCCCCCCCC (stereo not drawn) [Compound Ia12] | 18 | 0.3 | 0.5 | 0.9 | 
29 | CCCCCCCCCCCCCCCCCC(=O)N(CC(=O)O)CC(O)COCCCCCCCCCCCCCC (stereo not drawn) [Compound Ic1] | 14 | 0.7 | 0.9 | 1.2 | 
30 | CCCCCCCCCCCCCCCCOCC(O)CN(CC(O)CO)C(=O)CCCCCCCCCCCCCCC (stereo not drawn) [Compound Ia10, N-(3-hexadecyloxy-2-hydroxypropyl)-N-2,3-dihydroxypropylhexadecanamide] | 22 | 0.1 | 0.3 | 0.6 | 
31 | CCCCCCCCCCCCCCCCCCOCC(O)CN(CCO)CC(O)COCCCCCCCCCCCCCCCCCC (stereo not drawn) [Compound II4] | 21 | 0.1 | 0.3 | 0.7 | 
32 | CCCCCCCCCCCCCCCCOCC(O)CN(CCOP(=O)([O-])OCC[N+](C)(C)C)C(=O)CCCCCCCCCCCCCCC (stereo not drawn) [Compound Ie7] |  | 0.5 | 0.7 | 1.0 | 
